The values below come from patent US20170304329A1 (THE UNIVERSITY OF KANSAS, priority 2014, published 2017).

Holding throughout (format): cell-based, human
The test system of assay [1] is 253-JBV bladder cancer cells. Description: Clonogenicity assay. The conditions noted are these: 48 h treatment, then 10 days. On the procedure: (§1) We next determined the long-term effect of ciclopirox (CPX) on bladder cancer cells using the clonogenicity assay. For this assay, 6-well plates were seeded with 500 viable cells and were allowed to grow for overnight. The cells were then incubated in the presence or absence of various concentrations (1 and 5 μM) of CPX for 48 h. The CPX containing medium was then removed, and the cells were washed in PBS and incubated for an additional 10 days in complete medium. Each treatment was done in triplicate. The colonies obtained were washed with PBS and fixed in 10% formalin for 10 min at room temperature and then washed with PBS followed by staining with crystal violet. The colonies were compared to untreated cells.
(§2) The fresh medium was replaced and allowed to grow for 10 days. The colonies were stained with crystal violet and compared to untreated cells.

The test system of assay [2] is T24 bladder cancer cells. In words: Clonogenicity assay. The conditions noted are these: 48 h treatment, then 10 days. On the procedure:
as §1, §2

Assay [3] relates to T24 bladder cancer cells. In words: Annexin V-FITC apoptosis labeling. The conditions noted are these: 4 μM, up to 48 h. The protocol:
It was determined that CPX induces apoptosis. We next determined whether the compounds could induce cell death through the apoptotic pathway. For this we treated T24 bladder cancer cells with CPX (4 μM) and labeled the cells with FITC conjugated Annexin V to detect apoptotic cells. […] Cells were incubated with the indicated dose of compound for up to 48 h.

For assay [4], the system named is Notch, Wnt and Hedgehog signaling pathways in T24 cells. In words: RT-PCR array of signal transduction pathways. The protocol:
We performed an RT-PCR array analyses as a preliminary study to identify the pathways affected by ciclopirox (CPX). Expression analysis was performed using RT2 Profiler™ PCR Arrays (SA Biosciences, Frederick, Md., USA) per the manufacturer's instructions. The Human signal transduction pathway finder polymerase chain reaction (PCR) array was used (cat. no. PAHS-014ZA). Briefly, Total RNA isolated from T24 cells using TRIZOL reagent was reverse transcribed with Superscript II reverse transcriptase in the presence of random hexanucleotide primers (all from Invitrogen, Carlsbad, Calif.). Complementary DNA (2 μg) was mixed with 1,275 μL RT2 SYBR Green qPCR Master Mix (PA-010; SA Biosciences) to make up a total volume of 2,550 μL. Each well received 25 μL of this mix. qPCR was performed on an Bio-Rad CFX machine following detection protocols recommended by SA Biosciences. Changes in mRNA expression were expressed as fold change relative to control.

The subject of assay [5] is T24 cells transfected with Notch-1 intracellular domain (NICD). Description: Ectopic NICD expression and cell proliferation. The conditions noted are these: CPX 4 μM. On the procedure: We determined whether ectopic expression of NICD reversed ciclopirox (CPX) mediated inhibition of cell proliferation. For this study, T24 Cells were transfected with plasmid EF.hICN1.CMV.GFP encoding the Notch-1 intracellular domain (NICD) or the empty vector EF.v-CMV.GFP (Addgene Inc.) and subsequently treated with CPX (4 μM). Cell proliferation was detected using hexoaminidase assay.

The test system of a further assay is T24 cells. Description: Proliferation with predicted CPX urine concentration in 20% normal urine. The conditions noted are these: 3 days treatment, 50 uM-1.5625 uM CPX in 20% normal urine, 72 h. On the procedure: (§3) We next determined the effect of CPX in normal urine on T24 and 253JBV cells upon everyday treatment for up to 72 h (3 days treatment). The idea behind this experiment is to see the effect of predicted concentration of CPX in human urine on bladder cancer cells as the patient's bladder will be exposed every day to the predicted concentration of CPX. Three sets of plates were used, one plate each for one day treatment, two days treatment and three days treatment of CPX (50-1.5625 uM). T24 and 253JBV cells were incubated with CPX in normal urine (20% normal urine in complete RPMI media). […] The effect of CPX was determined by hexosaminidase assay beyond the 12 hours of varying CPX concentration (25 h, 48 h, and 72 h). In two days treatment, the cells are exposed to 50 uM-1.5625 uM for two days and the effect was determined by hexosaminidase assay at 48 h and 72 h time points. In three days treatment, the cells are exposed to 50 uM-1.5625 uM for three days and the effect was determined by hexosaminidase assay at 72 h time point.
T24 Cells were incubated with CPX in normal urine (20% normal urine in complete RPMI media). […] The effect of CPX was determined by hexosaminidase assay beyond the 12 hours of varying CPX concentration (25 h, 48 h, and 72 h). […]

The next assay has as its system 253JBV cells. Described as above. The conditions noted are these: 3 days treatment, 50 uM-1.5625 uM CPX in 20% normal urine, 72 h. The protocol: as §3
253JBV Cells were incubated with CPX in normal urine (20% normal urine in complete RPMI media). […] The effect of CPX was determined by hexosaminidase assay beyond the 12 hours of varying CPX concentration (25 h, 48 h, and 72 h). […]

As for `Cc1cc(C2CCCCC2)n(O)c(=O)c1` [CPX, 6-cyclohexyl-1-hydroxy-4-methylpyridin-2(1H)-one], the colony formation entry in assay [1] is “inhibited the number and size of colonies compared to control”; with T24 bladder cancer cells [2], “inhibited the number and size of colonies compared to control”. The “cell death (Annexin V-FITC labeled cells)” value with T24 bladder cancer cells [3] is recorded as “significant increase in cell death”. For the same molecule, in assay [4], the “mRNA expression of CSC signaling pathway genes” value is “significantly reduced the mRNA expression of Notch and its downstream signaling proteins”. Further, the “rescue of proliferation by NICD” value in assay [5] is reported as “Ectopic expression of NICD reversed CPX mediated inhibition of cell proliferation”. Besides, the “maximum inhibition of proliferation” value is recorded as 20% in the assay on T24 cells and 35% in the assay on 253JBV cells.
